In ChEMBL document CHEMBL5346859, “Dual-target Janus kinase (JAK) inhibitors: Comprehensive review on the JAK-based strategies for treating solid or hematological malignancies and immune-related diseases” (Eur J Med Chem, 2022):

Assays:
[1] = target: T1, Tyrosine-protein kinase JAK2 (Homo sapiens, UniProt O60674); assay: Inhibition of recombinant GST-tagged JAK2 catalytic domain (unknown origin) using pEY (4:1) as substrate incubated for 120 mins in presence of 33P-labeled ATP
[2] = test system: A2058; assay: Antitumor activity against human A2058 cells xenografted in NSG mouse assessed as tumor growth inhibition at 25 mg/kg, po administered twice daily for 18 days relative to control; assay type: functional; details: A2058, 432 h, time 18 day, read-out: TGI
[3] = target: T2, Non-receptor tyrosine-protein kinase TYK2 (Homo sapiens, UniProt P29597); assay: Inhibition of recombinant GST-tagged TYK2 catalytic domain (unknown origin) using pEY (4:1) as substrate incubated for 120 mins in presence of 33P-labeled ATP
[4] = target: T3, Proto-oncogene tyrosine-protein kinase Src (Homo sapiens, UniProt P12931); assay: Inhibition of recombinant GST-tagged c-Src catalytic domain (unknown origin) using pEY (4:1) as substrate incubated for 120 mins in presence of 33P-labeled ATP
[5] = target: T4, Tyrosine-protein kinase JAK1 (Homo sapiens, UniProt P23458); assay: Inhibition of recombinant GST-tagged JAK1 catalytic domain (unknown origin) using pEY (4:1) as substrate incubated for 120 mins in presence of 33P-labeled ATP
[6] = target: T4, Tyrosine-protein kinase JAK1; assay: Inhibition of recombinant JAK1 (unknown origin) incubated for 120 mins in presence of [33P]-ATP by hotspot assay
[7] = target: T2, Non-receptor tyrosine-protein kinase TYK2; assay: Inhibition of recombinant TYK2 (unknown origin) incubated for 120 mins in presence of [33P]-ATP by hotspot assay
[8] = test system: MIA PaCa-2; assay: Antiproliferative activity against human MIA PaCa-2 cells assessed as inhibition of cell growth incubated for 48 hrs by MTS assay; assay type: functional, cell-based; details: MIA PaCa-2, 48 h
[9] = target: T3, Proto-oncogene tyrosine-protein kinase Src; assay: Inhibition of recombinant c-Src (unknown origin) incubated for 120 mins in presence of [33P]-ATP by hotspot assay
[10] = target: T1, Tyrosine-protein kinase JAK2; assay: Inhibition of recombinant JAK2 (unknown origin) incubated for 120 mins in presence of [33P]-ATP by hotspot assay
[11] = target: T5, Receptor-type tyrosine-protein kinase FLT3 (Homo sapiens, UniProt P36888); assay: Inhibition of FLT3 (unknown origin) using FAM-labeled peptide as substrate preincubated with compound for 10 mins followed by substrate addition and measured after 60 mins in presence of ATP
T5 sequence (P36888 whole entry): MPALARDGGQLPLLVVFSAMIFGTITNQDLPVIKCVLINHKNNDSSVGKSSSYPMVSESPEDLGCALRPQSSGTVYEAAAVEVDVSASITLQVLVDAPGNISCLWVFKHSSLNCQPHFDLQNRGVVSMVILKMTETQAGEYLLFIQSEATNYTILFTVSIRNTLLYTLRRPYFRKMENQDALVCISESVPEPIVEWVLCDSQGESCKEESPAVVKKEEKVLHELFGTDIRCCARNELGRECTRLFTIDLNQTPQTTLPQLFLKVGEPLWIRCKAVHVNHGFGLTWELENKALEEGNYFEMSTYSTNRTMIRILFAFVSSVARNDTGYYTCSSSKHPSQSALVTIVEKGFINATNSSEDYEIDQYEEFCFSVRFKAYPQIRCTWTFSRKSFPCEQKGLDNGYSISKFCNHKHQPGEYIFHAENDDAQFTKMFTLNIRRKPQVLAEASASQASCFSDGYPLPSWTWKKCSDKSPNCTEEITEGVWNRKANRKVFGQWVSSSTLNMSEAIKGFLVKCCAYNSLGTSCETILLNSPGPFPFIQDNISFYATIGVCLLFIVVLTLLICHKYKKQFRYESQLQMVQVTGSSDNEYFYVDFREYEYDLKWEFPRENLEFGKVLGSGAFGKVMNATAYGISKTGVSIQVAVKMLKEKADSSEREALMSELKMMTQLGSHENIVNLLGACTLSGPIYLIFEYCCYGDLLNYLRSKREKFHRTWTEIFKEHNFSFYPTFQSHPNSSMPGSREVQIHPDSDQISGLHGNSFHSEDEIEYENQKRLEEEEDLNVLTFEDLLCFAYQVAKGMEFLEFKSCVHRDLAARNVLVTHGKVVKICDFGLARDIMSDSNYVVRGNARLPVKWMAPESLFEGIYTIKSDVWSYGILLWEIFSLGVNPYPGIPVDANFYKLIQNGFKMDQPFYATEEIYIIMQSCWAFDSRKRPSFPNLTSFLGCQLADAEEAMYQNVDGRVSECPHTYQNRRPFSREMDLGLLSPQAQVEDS

[12] = target: T1, Tyrosine-protein kinase JAK2; assay: Inhibition of JAK2 (unknown origin) using FAM-labeled peptide as substrate preincubated with compound for 10 mins followed by substrate addition and measured after 60 mins in presence of ATP
[13] = Metabolic stability in rat liver microsomes assessed as half life by LC-MS/MS analysis; assay type: ADME, Microsome
[14] = test system: MOLM-13; assay: Antiproliferative activity against human MOLM-13 cells assessed as inhibition of cell growth incubated for 48 hrs by CCK-8 assay; assay type: functional, cell-based; details: MOLM-13, 48 h
[15] = test system: HEL; assay: Antiproliferative activity against HEL cells assessed as inhibition of cell growth incubated for 48 hrs by CCK-8 assay; assay type: functional, cell-based; details: Homo sapiens
[16] = target: T5, Receptor-type tyrosine-protein kinase FLT3
[17] = target: T1, Tyrosine-protein kinase JAK2

T1 sequence (O60674 whole entry, the tested form may be a part): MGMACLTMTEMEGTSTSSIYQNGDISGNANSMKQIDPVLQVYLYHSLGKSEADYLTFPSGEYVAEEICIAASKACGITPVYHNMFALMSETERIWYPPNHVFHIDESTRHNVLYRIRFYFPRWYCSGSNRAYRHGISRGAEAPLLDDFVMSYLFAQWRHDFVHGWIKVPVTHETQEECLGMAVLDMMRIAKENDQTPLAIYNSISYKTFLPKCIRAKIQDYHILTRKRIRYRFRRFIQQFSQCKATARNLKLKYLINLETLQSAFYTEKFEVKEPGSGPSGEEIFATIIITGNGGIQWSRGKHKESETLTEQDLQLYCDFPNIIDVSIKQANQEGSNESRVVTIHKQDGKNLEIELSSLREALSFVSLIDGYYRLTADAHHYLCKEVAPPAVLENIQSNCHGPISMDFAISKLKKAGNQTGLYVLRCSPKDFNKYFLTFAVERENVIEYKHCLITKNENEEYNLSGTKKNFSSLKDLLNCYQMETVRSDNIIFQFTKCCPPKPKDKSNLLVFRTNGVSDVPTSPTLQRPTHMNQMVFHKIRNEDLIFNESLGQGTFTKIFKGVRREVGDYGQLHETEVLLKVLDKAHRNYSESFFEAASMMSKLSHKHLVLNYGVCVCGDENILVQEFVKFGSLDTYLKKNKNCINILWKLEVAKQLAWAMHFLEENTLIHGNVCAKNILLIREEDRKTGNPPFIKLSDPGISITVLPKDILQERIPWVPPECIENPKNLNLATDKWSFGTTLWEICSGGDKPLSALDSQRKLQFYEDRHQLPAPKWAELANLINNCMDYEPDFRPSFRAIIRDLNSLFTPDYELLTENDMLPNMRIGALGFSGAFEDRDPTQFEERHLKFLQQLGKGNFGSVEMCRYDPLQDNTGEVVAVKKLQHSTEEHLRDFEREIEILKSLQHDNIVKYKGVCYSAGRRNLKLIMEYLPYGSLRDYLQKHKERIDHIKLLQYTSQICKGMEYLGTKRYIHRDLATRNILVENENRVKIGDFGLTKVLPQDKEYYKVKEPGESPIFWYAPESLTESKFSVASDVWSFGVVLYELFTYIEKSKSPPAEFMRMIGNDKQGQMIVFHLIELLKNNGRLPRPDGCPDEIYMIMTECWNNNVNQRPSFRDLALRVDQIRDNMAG
T4 sequence (P23458 whole entry, the tested form may be a part): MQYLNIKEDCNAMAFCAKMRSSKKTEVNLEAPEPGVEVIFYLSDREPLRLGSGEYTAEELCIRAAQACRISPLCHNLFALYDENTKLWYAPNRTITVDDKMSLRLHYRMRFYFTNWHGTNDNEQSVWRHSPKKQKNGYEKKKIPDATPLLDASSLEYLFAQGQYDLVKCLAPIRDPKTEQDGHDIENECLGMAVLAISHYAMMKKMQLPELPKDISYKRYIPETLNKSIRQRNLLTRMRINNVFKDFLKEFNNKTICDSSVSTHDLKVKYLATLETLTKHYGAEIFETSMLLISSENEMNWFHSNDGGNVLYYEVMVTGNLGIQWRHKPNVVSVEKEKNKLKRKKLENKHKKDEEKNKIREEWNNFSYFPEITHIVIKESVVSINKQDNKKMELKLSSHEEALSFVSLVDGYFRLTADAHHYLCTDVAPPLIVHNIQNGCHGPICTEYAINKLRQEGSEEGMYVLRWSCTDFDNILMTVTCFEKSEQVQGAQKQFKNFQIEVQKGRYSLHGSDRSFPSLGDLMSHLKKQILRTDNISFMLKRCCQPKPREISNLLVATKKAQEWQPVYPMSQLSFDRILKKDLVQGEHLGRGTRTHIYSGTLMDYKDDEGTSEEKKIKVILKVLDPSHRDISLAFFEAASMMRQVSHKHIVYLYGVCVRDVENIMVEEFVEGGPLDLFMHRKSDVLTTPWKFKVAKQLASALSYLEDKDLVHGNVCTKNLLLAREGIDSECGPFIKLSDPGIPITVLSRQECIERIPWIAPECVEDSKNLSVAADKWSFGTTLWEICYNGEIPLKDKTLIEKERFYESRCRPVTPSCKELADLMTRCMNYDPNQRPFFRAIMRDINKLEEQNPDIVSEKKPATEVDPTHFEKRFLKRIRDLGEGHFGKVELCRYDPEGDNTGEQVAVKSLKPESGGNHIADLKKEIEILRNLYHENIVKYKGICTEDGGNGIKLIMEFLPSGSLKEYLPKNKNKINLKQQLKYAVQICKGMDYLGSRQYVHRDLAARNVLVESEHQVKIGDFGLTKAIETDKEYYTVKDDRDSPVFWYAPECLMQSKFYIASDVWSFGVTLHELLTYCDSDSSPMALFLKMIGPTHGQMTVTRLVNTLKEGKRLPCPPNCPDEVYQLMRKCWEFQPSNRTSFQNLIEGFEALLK
T2 sequence (P29597 whole entry, the tested form may be a part): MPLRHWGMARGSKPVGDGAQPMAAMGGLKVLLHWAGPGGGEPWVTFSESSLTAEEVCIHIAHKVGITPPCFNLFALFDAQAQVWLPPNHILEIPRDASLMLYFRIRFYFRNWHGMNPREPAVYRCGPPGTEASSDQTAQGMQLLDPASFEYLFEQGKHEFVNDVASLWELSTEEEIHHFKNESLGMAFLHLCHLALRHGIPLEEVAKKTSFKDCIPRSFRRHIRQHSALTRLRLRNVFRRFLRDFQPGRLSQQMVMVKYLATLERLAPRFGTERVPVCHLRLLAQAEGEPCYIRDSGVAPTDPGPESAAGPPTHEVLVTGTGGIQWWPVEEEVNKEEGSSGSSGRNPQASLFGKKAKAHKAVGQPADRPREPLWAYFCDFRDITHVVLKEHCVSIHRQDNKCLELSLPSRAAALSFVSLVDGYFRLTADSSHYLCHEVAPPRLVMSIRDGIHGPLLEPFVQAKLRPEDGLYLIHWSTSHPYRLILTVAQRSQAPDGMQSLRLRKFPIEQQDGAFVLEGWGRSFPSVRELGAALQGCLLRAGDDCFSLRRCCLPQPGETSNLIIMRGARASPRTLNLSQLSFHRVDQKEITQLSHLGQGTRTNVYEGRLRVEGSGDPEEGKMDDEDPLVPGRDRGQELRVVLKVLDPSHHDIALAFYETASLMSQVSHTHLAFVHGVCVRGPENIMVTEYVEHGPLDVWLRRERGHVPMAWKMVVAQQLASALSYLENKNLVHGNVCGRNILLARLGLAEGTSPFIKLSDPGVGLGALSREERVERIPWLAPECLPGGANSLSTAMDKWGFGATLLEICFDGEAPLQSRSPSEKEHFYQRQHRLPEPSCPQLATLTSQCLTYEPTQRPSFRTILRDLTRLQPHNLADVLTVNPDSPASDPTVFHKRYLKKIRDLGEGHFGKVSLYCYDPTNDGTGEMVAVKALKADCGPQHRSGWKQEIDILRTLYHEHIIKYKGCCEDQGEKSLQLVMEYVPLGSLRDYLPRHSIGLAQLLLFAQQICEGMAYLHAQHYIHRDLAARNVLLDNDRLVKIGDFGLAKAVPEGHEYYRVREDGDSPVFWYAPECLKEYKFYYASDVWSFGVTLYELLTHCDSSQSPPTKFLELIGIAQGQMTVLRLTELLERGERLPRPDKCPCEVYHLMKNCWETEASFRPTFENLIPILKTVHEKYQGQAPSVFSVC
T3 sequence (P12931 2-536 limits assumed): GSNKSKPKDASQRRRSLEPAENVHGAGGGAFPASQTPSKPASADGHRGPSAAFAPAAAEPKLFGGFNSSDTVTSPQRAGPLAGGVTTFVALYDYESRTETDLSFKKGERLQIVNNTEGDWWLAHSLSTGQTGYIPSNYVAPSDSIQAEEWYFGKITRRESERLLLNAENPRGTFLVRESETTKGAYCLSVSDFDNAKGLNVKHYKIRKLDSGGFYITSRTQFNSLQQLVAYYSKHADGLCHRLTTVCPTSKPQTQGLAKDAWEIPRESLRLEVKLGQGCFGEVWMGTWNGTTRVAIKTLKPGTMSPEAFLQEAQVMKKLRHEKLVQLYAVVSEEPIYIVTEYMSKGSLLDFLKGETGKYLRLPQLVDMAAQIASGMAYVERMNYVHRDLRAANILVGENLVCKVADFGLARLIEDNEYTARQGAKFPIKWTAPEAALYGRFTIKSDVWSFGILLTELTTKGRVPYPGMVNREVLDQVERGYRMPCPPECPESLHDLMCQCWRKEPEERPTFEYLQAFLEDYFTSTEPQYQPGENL

O=C1Nc2cc(Br)ccc2/C1=C1/Nc2ccccc2/C1=N\OCCN1CCNCC1
IC50 [1]: 0.028 µM | inhibition in vivo at 25 mg/kg [2]: 50% | IC50 [3]: 0.05 µM | IC50 [4]: 0.0002 µM | IC50 [5]: 0.6 µM

COc1ccc2c(c1)/C(=C1/Nc3ccccc3/C1=N\OCC(O)CO)C(=O)N2 (stereo not given)
IC50 [6]: 0.0104 µM | IC50 [7]: 0.0007 µM | IC50 [8]: 0.68 µM | IC50 [9]: 0.0104 µM | IC50 [10]: 0.0741 µM

O=C1Nc2c(Br)cccc2/C1=C1/Nc2ccccc2/C1=N\OCCN1CCNCC1
IC50 [1]: > 10 µM

CC(=O)c1ccc(NC(=O)N2CCN(c3ccnc(Nc4ccc(N5CCOCC5)cc4)n3)CC2)cc1
IC50 [11]: 0.0014 µM | IC50 [12]: 0.0029 µM

CC(=O)c1ccc(NC(=O)N2CCN(c3nc(Nc4ccc(N5CCOCC5)cc4)ncc3Cl)CC2)cc1
half-life [13]: 31 min | IC50 [11]: 0.00068 µM | IC50 [14]: 0.019 µM | IC50 [15]: 0.5 µM | IC50 [12]: 0.0018 µM

COc1ccc2cc1COC/C=C/COCc1cccc(c1)-c1ccnc(n1)N2
IC50 [16]: 0.19 µM | IC50 [17]: 0.07 µM
